For 21 compounds, Ki and IC50 results are on record in US9090535B2, “Hydroxylated tricyclic compounds” (Nektar Therapeutics, priority 2010, dated 2015).

Where a name gives a salt, the structure may show the parent alone. Read-outs that look alike come from different tables or passages of the source.

Data set [1] concerns the target T1, human norepinephrine transporter (hNET) (Homo sapiens, UniProt P23975).
T1 construct: expressed in transfected cells; host or cells: MDCK cells
Put plainly: Binding affinity to human norepinephrine transporter (hNET), [3H]Nisoxetine displacement. As to conditions: membranes from MDCK cells expressing hNET, [3H]Nisoxetine 2 nM, read-out: NET binding, Ki. The procedure:
The binding affinities of certain compounds disclosed herein to the hNET were measured using competitive radioligand displacement assays in membranes prepared from MDCK cells that express the human norepinephrine transporter. Competition binding experiments were conducted by incubating hNET membranes with [^3H] Nisoxetine (2 nM), in the presence of increasing concentrations of test compounds. Incubations were carried out at 4° C. for 60 minutes in buffer containing 50 mM Tris HCl, 120 mM NaCl and 5 mM KCl (pH 7.4). The binding reaction was terminated by rapid filtration, membranes were washed and membrane-bound radioactivity was measured using a scintillation counter. Non-specific binding was measured in the presence of excess (10 μM) clomipramine as the unlabelled ligand and this value was subtracted from the total binding to yield the specific binding at each test compound concentration.
IC50 values were obtained from non-linear regression analysis of concentration-versus specific binding plots. Ki values were calculated from the IC50 values using the Cheng Prusoff correction and experimentally determined […] values for the radioligand under these assay conditions.

Data set [2] addresses T2, cloned human hERG channel (Homo sapiens, UniProt Q12809).
T2 construct: expressed in transfected cells; host or cells: HEK cells
Put plainly: In vitro effect on hERG channels, whole-cell patch clamp in HEK cells. Format: cell-based. To be noted: 37 °C, read-out: IhERG, 0.1 HZ, IC50. The procedure:
Electrophysiological measurements of hERG current were made in vitro to assess the hERG block produced by certain compounds disclosed herein. hERG currents were measured in HEK cells expressing the cloned human hERG channel using the whole-cell variant of the patch clamp method. Experiments were performed at 37±1° C. An Axopatch 1-B amplifier (Axon Instruments, Foster City, Calif.) was used for whole-cell voltage clamping. Creation of voltage clamp pulses and data acquisition was controlled by a PC running pClamp software (version 9.2, Axon Instruments). After rupture of the cell membrane (entering whole-cell mode), current kinetics and amplitudes were allowed to stabilize for 3-5 minutes as the cell was dialyzed with internal solution and paced at 0.1 Hz. Cells were depolarized to +10 mV for 500 ms from a holding potential of −75 mV and peak hERG current was measured as the maximum outward deflection of the tail current elicited upon return to −40 mV (pacing rate=0.1 Hz). Four concentrations of each test compound were added to the cell in a cumulative manner starting with the lowest test concentration. Each cell served as its own control and data are presented as % reduction of current amplitude achieved in the presence of drug.
A nonlinear curve fitting routine was utilized to fit a three-parameter Hill equation to the results using MicroCal Origin, version 6.0 software. The equation was: […]

The subject of data set [3] is sodium channels (sodium current INa) in rat dorsal root ganglion (DRG) cells. As to the kind of experiment: Sodium channel assay, whole-cell patch clamp of sodium current in isolated DRG cells. It is filed as cell-based. An excerpt: The effect of compounds disclosed herein on sodium channels may be evaluated in vitro to determine their blocking properties using the whole-cell patch clamp method in isolated cardiac (human atrial myocytes) and neuronal (rat dorsal root ganglion) cells. The example below refers to a sodium channel assay using neuronal cells.
Electrophysiologic patch clamp recordings of the sodium current in isolated rat dorsal root ganglion (DRG) cells were used to measure the sodium channel blocking properties of certain compounds disclosed herein. DRG cells were isolated according to the method of Blair and Bean (J Neurosci, 22: pp. 10277-10290, 2002) and plated on treated glass coverslips. For measuring the sodium current, cells were perfused with an external solution that consists of (in mmol/L): 115 TMA chloride, 10 NaCl, 5 CsCl, 1.8 CaCl2, 1.2 MgCl2, 10 HEPES, 11 dextrose, pH adjusted to 7.4 with TMA-OH. The chemical composition of the internal solution was (in mmol/L): 115 CsF, 20 CsCl, 10 NaF, 10 HEPES, 5 EGTA; pH adjusted to 7.2 with CsOH. Currents were measured using the whole-cell variant of the patch clamp method (Crumb & Clarkson, Biophysical Journal, 57(3): 589, 1990). An Axopatch 1-B amplifier (Axon Instruments, Foster City, Calif.) was used for whole-cell voltage clamping. Creation of voltage clamp pulses and data acquisition were controlled by a PC running pClamp software (version 9.2, Axon Instruments). INa was elicited by a 40 ms pulse to −20 mV from a holding potential of −65 mV. Pacing rates of 0.1 and 3 Hz were examined. […]. Four concentrations of each test compound were added to the cell in a cumulative manner starting with the lowest test concentration. Each cell served as its own control and data are presented as % reduction of current amplitude achieved in the presence of drug. A nonlinear curve fitting routine was utilized to fit a three-parameter Hill equation to the results using MicroCal Origin, version 6.0 software. The equation was: […]

T2 sequence (Q12809 whole entry): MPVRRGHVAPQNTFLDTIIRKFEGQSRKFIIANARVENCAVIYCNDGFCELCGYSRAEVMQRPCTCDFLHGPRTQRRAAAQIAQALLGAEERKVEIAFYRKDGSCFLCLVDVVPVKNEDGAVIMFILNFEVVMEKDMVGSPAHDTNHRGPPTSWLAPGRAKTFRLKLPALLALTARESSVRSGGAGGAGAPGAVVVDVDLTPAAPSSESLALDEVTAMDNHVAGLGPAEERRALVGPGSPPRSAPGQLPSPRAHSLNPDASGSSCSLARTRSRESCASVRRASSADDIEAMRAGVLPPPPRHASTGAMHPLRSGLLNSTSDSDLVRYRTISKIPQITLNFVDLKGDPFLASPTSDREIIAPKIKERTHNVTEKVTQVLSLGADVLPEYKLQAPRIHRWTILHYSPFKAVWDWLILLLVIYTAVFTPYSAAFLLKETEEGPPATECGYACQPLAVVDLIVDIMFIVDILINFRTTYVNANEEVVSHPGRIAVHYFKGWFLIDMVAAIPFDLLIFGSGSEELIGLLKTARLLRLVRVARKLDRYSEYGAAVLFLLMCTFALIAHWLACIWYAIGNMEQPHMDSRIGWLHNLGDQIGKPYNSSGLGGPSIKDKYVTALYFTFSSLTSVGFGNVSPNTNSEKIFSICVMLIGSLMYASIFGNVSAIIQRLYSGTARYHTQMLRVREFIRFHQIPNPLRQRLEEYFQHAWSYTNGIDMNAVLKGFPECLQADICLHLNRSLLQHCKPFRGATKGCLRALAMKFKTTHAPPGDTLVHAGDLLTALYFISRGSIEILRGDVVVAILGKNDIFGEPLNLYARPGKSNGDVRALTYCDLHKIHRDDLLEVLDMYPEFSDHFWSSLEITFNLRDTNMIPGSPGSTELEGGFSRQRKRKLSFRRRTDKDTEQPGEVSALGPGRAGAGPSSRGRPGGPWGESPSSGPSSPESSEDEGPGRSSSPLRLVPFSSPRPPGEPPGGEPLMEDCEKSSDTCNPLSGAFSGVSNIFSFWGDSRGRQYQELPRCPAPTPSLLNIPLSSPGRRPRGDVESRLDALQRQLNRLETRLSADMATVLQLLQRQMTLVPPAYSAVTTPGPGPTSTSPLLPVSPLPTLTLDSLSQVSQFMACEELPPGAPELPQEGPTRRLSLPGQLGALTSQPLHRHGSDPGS
T1 sequence (P23975 whole entry): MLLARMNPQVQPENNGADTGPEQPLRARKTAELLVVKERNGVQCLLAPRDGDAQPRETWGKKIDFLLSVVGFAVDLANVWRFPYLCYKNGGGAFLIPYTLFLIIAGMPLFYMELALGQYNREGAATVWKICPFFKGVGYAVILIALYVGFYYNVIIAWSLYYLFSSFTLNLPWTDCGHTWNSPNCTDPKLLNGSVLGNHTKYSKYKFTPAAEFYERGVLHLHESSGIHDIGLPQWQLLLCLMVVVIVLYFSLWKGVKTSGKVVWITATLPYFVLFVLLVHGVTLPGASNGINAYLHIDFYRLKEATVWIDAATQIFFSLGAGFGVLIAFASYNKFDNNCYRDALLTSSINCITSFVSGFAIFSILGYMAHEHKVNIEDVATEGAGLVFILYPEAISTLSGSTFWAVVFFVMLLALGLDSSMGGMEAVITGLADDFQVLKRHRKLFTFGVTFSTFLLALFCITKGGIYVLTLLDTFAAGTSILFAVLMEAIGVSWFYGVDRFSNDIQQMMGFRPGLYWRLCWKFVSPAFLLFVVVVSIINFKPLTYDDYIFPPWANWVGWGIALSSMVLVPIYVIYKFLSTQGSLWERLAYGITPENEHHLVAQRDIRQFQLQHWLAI

By Ki is commonly meant a dissociation constant, usually derived from enzyme kinetics or from competition with a known ligand. The IC50 is the concentration that inhibits the measured activity by half. As for “5-(3-Dimethylamino-propylidene)-10,11-dihydro-5H-dibenzo[a,d]cyclohept-E-en-2-OmPEG6 hydrochloride salt”, the Ki in data set [1] (Table 1) was found to be 35.5 µM. Also, the IC50 in data set [2] (Table 1, pacing rate 0.1 Hz) is 61.5 µM; in data set [3] (Table 1, pacing rate 3 Hz) it was 16.3 µM.
For “5-(3-Dimethylamino-propylidene)-10,11-dihydro-5H-dibenzo[a,d]cyclohept-Z-en-2-OmPEG6 hydrochloride salt”, the Ki in data set [1] (Table 1) was 37.7 µM. In addition, the IC50 was determined as 8.1 µM in data set [2] (Table 1, pacing rate 0.1 Hz) and 12.4 µM in data set [3] (Table 1, pacing rate 3 Hz).
Consider `COCCOCCOCCOCCOc1ccc2c(c1)CCc1ccccc1/C2=C\CCN(C)C` [5-(3-Dimethylamino-propylidene)-10,11-dihydro-5H-dibenzo[a,d]cyclohept-E-en-2-OmPEG4 hydrochloride salt], for which the Ki in data set [1] (Table 1) stood at 60.8 µM. Further, the IC50 in data set [2] (Table 1, pacing rate 0.1 Hz) was 5.8 µM; in data set [3] (Table 1, pacing rate 3 Hz), 6.8 µM.
For `COCCOCCOCCOCCOCCOCCOCCOCCOc1ccc2c(c1)CCc1ccccc1/C2=C\CCN(C)C` [5-(3-Dimethylamino-propylidene)-10,11-dihydro-5H-dibenzo[a,d]cyclohept-E-en-2-OmPEG8 hydrochloride salt], in that order: 62.9 µM, 2.2 µM and 23.4 µM.
For `COCCOCCOCCOCCOc1ccc2c(c1)CCc1ccccc1/C2=C/CCN(C)C` [5-(3-Dimethylamino-propylidene)-10,11-dihydro-5H-dibenzo[a,d]cyclohept-Z-en-2-OmPEG4 hydrochloride salt], in that order: 21.2 µM, 24.9 µM and 12.8 µM.
In the case of `COCCOCCOCCOCCOCCOCCOCCOCCOc1ccc2c(c1)CCc1ccccc1/C2=C/CCN(C)C` [5-(3-Dimethylamino-propylidene)-10,11-dihydro-5H-dibenzo[a,d]cyclohept-Z-en-2-OmPEG8 hydrochloride salt], the Ki in data set [1] (Table 1) came to 646 µM. The IC50 in data set [2] (Table 1, pacing rate 0.1 Hz) amounted to 26.4 µM; in data set [3] (Table 1, pacing rate 3 Hz) it was 16.9 µM.
For the compound `CN(C)CC/C=C1\c2ccccc2CCc2cc(O)ccc21` [(E)-5-(3-(dimethylamino)propylidene)-10,11-dihydro-5H-dibenzo[a,d][7]annulen-2-ol, reference compound], the Ki in data set [1] (Table 1) amounted to 0.16 µM.
As to `CN(C)CC/C=C1\c2ccccc2C[C@@H](O)c2ccccc21` [(R)-5-(3-dimethylamino-propylidene)-10,11-dihydro-5H-dibenzo[a,d]cyclohept-E-en-10-ol, reference compound], the Ki in data set [1] (Table 2) turned out to be 2.53 µM. Moreover, the IC50 was 18 µM in data set [2] (Table 2, pacing rate 0.1 Hz) and 6.2 µM in data set [3] (Table 2, pacing rate 3 Hz).
Turning to `CN(C)CC/C=C1/c2ccccc2C[C@@H](O)c2ccccc21` [(R)-5-(3-dimethylamino-propylidene)-10,11-dihydro-5H-dibenzo[a,d]cyclohept-Z-en-10-ol, reference compound], the Ki in data set [1] (Table 3) is 6.28 µM. Also, the IC50 in data set [2] (Table 3, pacing rate 0.1 Hz) is 4.1 µM.
For `COCCO[C@@H]1Cc2ccccc2/C(=C\CCN(C)C)c2ccccc21` [(R)-5-(3-dimethylamino-propylidene)-10-OmPEG1-10,11-dihydro-5H-dibenzo[a,d]cyclohept-E-ene trifluoroacetate salt], in data set [1] (Table 2), the Ki was determined as 4.45 µM. Also, the IC50 in data set [2] (Table 2, pacing rate 0.1 Hz) turned out to be 12.1 µM.
With `COCCOCCO[C@@H]1Cc2ccccc2/C(=C\CCN(C)C)c2ccccc21` [(R)-5-(3-dimethylamino-propylidene)-10-OmPEG2-10,11-dihydro-5H-dibenzo[a,d]cyclohept-E-ene trifluoroacetate salt], the Ki in data set [1] (Table 2) is 49.1 µM. Also, in data set [2] (Table 2, pacing rate 0.1 Hz), the half-maximal inhibitory concentration (IC50) was 14 µM.
Turning to `COCCOCCOCCOCCO[C@@H]1Cc2ccccc2/C(=C\CCN(C)C)c2ccccc21` [(R)-5-(3-dimethylamino-propylidene)-10-OmPEG4-10,11-dihydro-5H-dibenzo[a,d]cyclohept-E-ene trifluoroacetate salt], in data set [1] (Table 2), the Ki came out at 28.1 µM. In addition, the IC50 was 39.9 µM in data set [2] (Table 2, pacing rate 0.1 Hz) and 21.3 µM in data set [3] (Table 2, pacing rate 3 Hz).
Turning to `COCCOCCOCCOCCO[C@@H]1Cc2ccccc2/C(=C/CCN(C)C)c2ccccc21` [(R)-5-(3-dimethylamino-propylidene)-10-OmPEG4-10,11-dihydro-5H-dibenzo[a,d]cyclohept-Z-ene trifluoroacetate salt], the Ki in data set [1] (Table 3) was found to be 30.6 µM. Further, in data set [2] (Table 3, pacing rate 0.1 Hz), the IC50 was found to be 21.5 µM.
As to `COCCOCCOCCOCCOCCOCCO[C@@H]1Cc2ccccc2/C(=C\CCN(C)C)c2ccccc21` [(R)-5-(3-dimethylamino-propylidene)-10-OmPEG6-10,11-dihydro-5H-dibenzo[a,d]cyclohept-E-ene trifluoroacetate salt], the Ki in data set [1] (Table 2) came out at 60.4 µM. The IC50 in data set [2] (Table 2, pacing rate 0.1 Hz) was found to be 37.9 µM; in data set [3] (Table 2, pacing rate 3 Hz) it was 8.1 µM.
As for `COCCOCCOCCOCCOCCOCCO[C@@H]1Cc2ccccc2/C(=C/CCN(C)C)c2ccccc21` [(R)-5-(3-dimethylamino-propylidene)-10-OmPEG6-10,11-dihydro-5H-dibenzo[a,d]cyclohept-Z-ene trifluoroacetate salt], the inhibition constant (Ki) in data set [1] (Table 3) was 31.3 µM. Further, in data set [2] (Table 3, pacing rate 0.1 Hz), the IC50 came to 18.9 µM.
Turning to `COCCOCCOCCOCCOCCOCCOCCOCCO[C@@H]1Cc2ccccc2/C(=C/CCN(C)C)c2ccccc21` [(R)-5-(3-dimethylamino-propylidene)-10-OmPEG8-10,11-dihydro-5H-dibenzo[a,d]cyclohept-Z-ene trifluoroacetate salt], the Ki in data set [1] (Table 3) stood at 4.37 µM. Moreover, the IC50 in data set [2] (Table 3, pacing rate 0.1 Hz) is more than 100 µM.
For `CN(C)CC/C=C1/c2ccccc2C[C@H](O)c2ccccc21` [(S)-5-(3-Dimethylamino-propylidene)-10,11-dihydro-5H-dibenzo[a,d]cyclohept-Z-en-10-ol, reference compound], in that order: 0.97 µM and 7.2 µM.
Take `COCCOCCOCCOCCO[C@H]1Cc2ccccc2/C(=C/CCN(C)C)c2ccccc21` [(S)-5-(3-dimethylamino-propylidene)-10-OmPEG4-10,11-dihydro-5H-dibenzo[a,d]cyclohept-Z-ene trifluoroacetate salt]: in data set [1] (Table 3), the Ki was found to be 27.4 µM. Also, the concentration for half-maximal inhibition (IC50) in data set [2] (Table 3, pacing rate 0.1 Hz) amounted to 11.5 µM.
As for `COCCOCCOCCOCCOCCOCCO[C@H]1Cc2ccccc2/C(=C/CCN(C)C)c2ccccc21` [(S)-5-(3-dimethylamino-propylidene)-10-OmPEG6-10,11-dihydro-5H-dibenzo[a,d]cyclohept-Z-ene trifluoroacetate salt], the Ki in data set [1] (Table 3) was found to be 22.1 µM. The IC50 in data set [2] (Table 3, pacing rate 0.1 Hz) came to 38.3 µM.
`COCCOCCOCCOCCOCCOCCOCCOCCO[C@H]1Cc2ccccc2/C(=C/CCN(C)C)c2ccccc21` [(S)-5-(3-dimethylamino-propylidene)-10-OmPEG8-10,11-dihydro-5H-dibenzo[a,d]cyclohept-Z-ene trifluoroacetate salt]: in data set [1] (Table 3), the Ki is 2.99 µM. Also, the IC50 in data set [2] (Table 3, pacing rate 0.1 Hz) was 32.8 µM.
Turning to `CN(C)CCC=C1c2ccccc2CCc2ccccc21` [Amitriptyline, reference compound], the IC50 came to 7.1 µM in data set [3] (Table 1, pacing rate 3 Hz) and 7.1 µM in data set [3] (Table 2, pacing rate 3 Hz).
